Experimental data from PMC10107164 (2022).

What was measured:
[1] = test system: HTelo (HTelo22) (DNA, G4) AGGGTTAGGGTTAGGGTTAGGG; assay: fluorimetric titration (ligand emission); details: 100 mM KCl; 10 mM Tris, pH 7.4; 1:1 binding model
[2] = test system: HTelo (F21T-K / F21T-Na) (DNA, G4) GGGTTAGGGTTAGGGTTAGGG; assay: FRET melting; details: 10 mM LiCac, pH 7.3, 0.2 μM DNA, 2 μM compound (1:10)
[3] = test system: ds26 (DNA, duplex) CAATCGGATCGAATTCGATCCGATTG; assay: thiazole orange displacement (FID); details: 100 mM KCl; 10 mM LiCaco, pH 7.2; 1 μM DNA, 3 μM thiazole orange displaced
[4] = test system: Kit1 (DNA, G4) AGGGAGGGCGCTGGGAGGAGGG; assay: thiazole orange displacement (FID); details: 100 mM KCl; 10 mM LiCaco, pH 7.2; 1 μM DNA, 2 μM thiazole orange displaced
[5] = test system: ds26 (labelled) (DNA, duplex) CAATCGGATCGAATTCGATCCGATTG; assay: FRET melting; details: 100 mM KCl; 10 mM LiCac, pH 7.3; 0.2 μM DNA, 2 μM compound (1:10)
[6] = test system: cMyc (DNA, G4) TGAGGGTGGGTAGGGTGGGTAA; assay: fluorimetric titration (ligand emission); details: 100 mM KCl; 10 mM Tris, pH 7.4; 1:1 binding model
[7] = test system: 24TTG (labelled) (DNA, G4) TTGGGTTAGGGTTAGGGTTAGGGA; assay: FRET melting; details: 100 mM KCl; 10 mM LiCac, pH 7.3; 0.2 μM DNA, 2 μM compound (1:10)
[8] = test system: cMyc (DNA, G4) TGAGGGTGGGTAGGGTGGGTAA; assay: thiazole orange displacement (FID); details: 100 mM KCl; 10 mM LiCaco, pH 7.2; 1 μM DNA, 2 μM thiazole orange displaced
[9] = test system: TBA (labelled) (DNA, G4) GGTTGGTGTGGTTGG; assay: FRET melting; details: 100 mM KCl; 10 mM LiCac, pH 7.3; 0.2 μM DNA, 1 μM compound (1:5)
[10] = test system: Kit1 (labelled) (DNA, G4) AGGGAGGGCGCTGGGAGGAGGG; assay: FRET melting; details: 100 mM KCl; 10 mM LiCac, pH 7.3; 0.2 μM DNA, 2 μM compound (1:10)
[11] = test system: Bcl2 (labelled) (DNA, G4) GGGCGCGGGAGGAATTGGGCGGG; assay: FRET melting; details: 100 mM KCl; 10 mM LiCac, pH 7.3; 0.2 μM DNA, 2 μM compound (1:10)
[12] = test system: 26TTA (labelled) (DNA, G4) TTAGGGTTAGGGTTAGGGTTAGGGTT; assay: FRET melting; details: 100 mM KCl; 10 mM LiCac, pH 7.3; 0.2 μM DNA, 2 μM compound (1:10)
[13] = test system: HTelo (HTelo22) (DNA, G4) AGGGTTAGGGTTAGGGTTAGGG; assay: thiazole orange displacement (FID); details: 100 mM KCl; 10 mM LiCaco, pH 7.2; 1 μM DNA, 2 μM thiazole orange displaced
[14] = test system: F21T-RNA (RNA, G4) GGGUUAGGGUUAGGGUUAGGG; assay: FRET melting; details: 100 mM KCl; 10 mM LiCac, pH 7.3; 0.2 μM DNA, 2 μM compound (1:10)
[15] = test system: Kit1 (DNA, G4) AGGGAGGGCGCTGGGAGGAGGG; assay: fluorimetric titration (ligand emission); details: 100 mM KCl; 10 mM Tris, pH 7.4; 1:1 binding model
[16] = test system: ds26 (DNA, duplex) CAATCGGATCGAATTCGATCCGATTG; assay: fluorimetric titration (ligand emission); details: 100 mM KCl; 10 mM Tris, pH 7.4; 1:1 binding model
[17] = test system: Kit2 (labelled) (DNA, G4) CGGGCGGGCGCGAGGGAGGGG; assay: FRET melting; details: 100 mM KCl; 10 mM LiCac, pH 7.3; 0.2 μM DNA, 2 μM compound (1:10)
[18] = test system: Bcl2 (DNA, G4) GGGCGCGGGAGGAATTGGGCGGG; assay: fluorimetric titration (ligand emission); details: 100 mM KCl; 10 mM Tris, pH 7.4; 1:1 binding model

Ka [1]	ΔTm ([2]; 100 mM KCl)	ΔTm ([2]; 100 mM NaCl)	DC50 [3]	DC50 [4]	binding [5]	Ka [6]	ΔTm [7]	DC50 [8]	ΔTm [9]	ΔTm [10]	ΔTm [11]	ΔTm [12]	DC50 [13]	ΔTm [14]	Ka [15]	Ka [16]	ΔTm [17]	Ka [18]	Structure (SMILES)
> 10^7 M^-1	> 35 °C	24.8 °C	> 5 µM	3.00 µM	no	4.5(0.8)x10^5 M^-1	< 12 °C	2.84 µM	19.4 °C	> 35 °C	30.5 °C	< 12 °C	> 5 µM	> 26.5 °C	4.0(0.4)x10^5 M^-1	3.5(0.5)x10^5 M^-1	27.9 °C	5.4(0.5)x10^5 M^-1	C[N+](C)(C)CCCOc1ccc(N(c2ccc(OCCC[N+](C)(C)C)cc2)c2ccc(-c3ccc4c(c3)C3(c5ccccc5-c5ccccc53)c3cc(-c5ccc(N(c6ccc(OCCC[N+](C)(C)C)cc6)c6ccc(OCCC[N+](C)(C)C)cc6)cc5)ccc3-4)cc2)cc1
7.2(2)x10^4 M^-1			3.52 µM	> 5 µM		5.6(0.1)x10^4 M^-1		> 5 µM					> 5 µM		< 10^3 M^-1	< 10^3 M^-1		5.5(0.3)x10^4 M^-1	O=S(=O)(O)CCCCOc1ccc(N(c2ccc(OCCCCS(=O)(=O)O)cc2)c2ccc(-c3ccc4c(c3)C3(c5ccccc5-c5ccccc53)c3cc(-c5ccc(N(c6ccc(OCCCCS(=O)(=O)O)cc6)c6ccc(OCCCCS(=O)(=O)O)cc6)cc5)ccc3-4)cc2)cc1
